Experimental data published in BindingDB's records for doi:10.1038/nchembio.2306 (AbbVie Inc, 2017).
pIC50, pKi: −log10 of the molar value.

Experiments:
Polycomb protein EED [1] = target: T1, Polycomb protein EED (Homo sapiens, UniProt O75530); test: TR-FRET Binding Assay; settings: pH 7.5; 25 °C
Experimental: (§1) The following buffer was used to set up the binding reactions: 20 mM Tris-HCl pH 7.5, 200 mM NaCl, 0.01% Tween-20, 10 μM DTT, and 0.05% BSA, with the DTT and BSA added fresh before initiating the binding assay. […] The reactions were then incubated for 1 h at 25 °C in a humidified chamber to obtain thermodynamic equilibrium before detection on the PerkinElmer Envision plate reader using a LanthaScreen TR-FRET protocol.

Polycomb protein EED [2] = target: T1, Polycomb protein EED; test: EED A-395 Peptide Competition Assay; settings: pH 7.5; 25 °C
Experimental: as §1, with “chamber” for “chamber to obtain thermodynamic equilibrium”, “an AlphaLISA/Screen” for “a LanthaScreen TR-FRET”

Polycomb protein EED [3] = target: T1, Polycomb protein EED; test: Radioligand Binding Assay; settings: 23 °C
Experimental: 30 μl of reaction mixtures were incubated at 23 °C for 70 min. To stop the enzymatic reactions, 150 μl of 10% trichloroacetic acetic acid (TCA) was added, mixed and transferred to filter plates (Millipore; cat. # MSFBN6B10). Plates were centrifuged at 2,000 r.p.m. (Allegra X-15R - Beckman Coulter, Inc.) for 2 min followed by two additional 10% TCA washes and one ethanol wash followed by centrifugation.

T1 sequence (O75530 whole entry): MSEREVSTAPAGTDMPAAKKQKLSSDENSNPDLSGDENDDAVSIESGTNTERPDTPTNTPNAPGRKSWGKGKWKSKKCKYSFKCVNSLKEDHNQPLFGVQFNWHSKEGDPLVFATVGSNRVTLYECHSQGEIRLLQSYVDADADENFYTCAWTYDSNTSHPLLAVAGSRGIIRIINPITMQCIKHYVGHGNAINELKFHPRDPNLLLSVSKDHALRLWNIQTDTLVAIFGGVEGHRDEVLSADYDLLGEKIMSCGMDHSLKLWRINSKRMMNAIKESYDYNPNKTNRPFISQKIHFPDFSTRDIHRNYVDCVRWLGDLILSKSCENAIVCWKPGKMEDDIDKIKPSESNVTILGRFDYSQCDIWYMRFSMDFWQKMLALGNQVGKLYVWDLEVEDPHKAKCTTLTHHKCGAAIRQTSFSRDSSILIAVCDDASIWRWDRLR

| Compound | pKi (Polycomb protein EED [1]) | pIC50 (Polycomb protein EED [2]) | pIC50 (Polycomb protein EED [3]) |
| --- | --- | --- | --- |
| Cc1cccc(F)c1CN1C[C@H](c2cn(C)c3ccccc23)[C@@H](N(C)C)C1 (racemic) [rac-(3R,4S)-1-(2-fluoro-6-methylbenzyl)-N,N-dimethyl-4-(1-methyl-1H-indol-3-yl)pyrrolidin-3-amine (2)] | 8.40 | – | – |
| CN(C)[C@H]1CN([C@H]2CCc3cccc(F)c32)C[C@@H]1c1cn(C)c2ccccc12 [(3R,4S)-1-[(1S)-7-fluoroindan-1-yl]-N,N-dimethyl-4-(1-methylindol-3-yl)pyrrolidin-3-amine (3)] | 9.00 | – | – |
| CN(C)[C@@H]1CN(Cc2ccccc2)C[C@H]1c1ccc(N2CCN(S(C)(=O)=O)CC2)cc1 [A-395N (6)] | 5.74 | 5.88 | < 4.30 |
